In PubChem BioAssay (NCI) one finds GI50 and TGI data, which are given here for 10 compounds.

Among the test systems are MDA-MB-231 breast; NCI-H460 lung; SF-295 CNS; SK-OV-3 ovarian; SN12C renal; SNB-19 CNS; SW-620 colon; NCI-H23 lung; NCI-H522 lung.
Holding throughout (experiment): NCI tumour cell line growth inhibition, 48 h

Where “and” joins values, the source holds several entries; their conditions need not be identical. Equal entries are not always repeated.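 Test compounds were applied to cells in 96-well plates for 48 hours at 5 doses. Abbreviation: GI50, concentration required for 50% inhibition of growth. TGI: concentration producing complete growth inhibition.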

As to `COC(=O)NC/C=C\c1nc(CC/C=C\C(=O)OC2CC3CC(=O)O[C@H](/C=C/CC(C)C)C[C@H]4CCC(C)C(C[C@H](OC)CC(C2)O3)O4)co1` (some centres undefined), the GI50 was 11.3 µM in the test with MDA-MB-231 breast; less than 0.01 µM with NCI-H460 lung; less than 0.01 µM in the test on SF-295 CNS; 63.9 µM in the test on SK-OV-3 ovarian; less than 0.01 µM with SN12C renal; 23 µM in the test on SNB-19 CNS. In the test with SW-620 colon, the GI50 was less than 0.01 µM. For the same compound, the TGI was more than 100 µM with MDA-MB-231 breast; 63.5 µM in the test on NCI-H460 lung; 61.5 µM in the test on SF-295 CNS; more than 100 µM with SK-OV-3 ovarian; 28.8 µM with SN12C renal; more than 100 µM in the test on SNB-19 CNS. Moreover, the TGI with SW-620 colon was more than 100 µM.

`CC(=O)NC1=C(Nc2ccc(C)cc2)C(=O)c2ccccc2C1=O`: the TGI with NCI-H23 lung was 19.6 µM; with NCI-H460 lung, 22.9 µM; in the test with SF-295 CNS, 54.7 µM; in the test on SK-OV-3 ovarian, more than 75 µM; in the test with SN12C renal, 44 µM; in the test with SNB-19 CNS, more than 75 µM. This compound came in with a TGI with SW-620 colon of 27.7 µM.

Take `CC1Cc2c(N)nc(NN)nc2NC1=O` (centres undefined): the TGI with NCI-H23 lung, in the test with NCI-H460 lung, in the test with NCI-H522 lung, in the test with SF-295 CNS, with SK-OV-3 ovarian and in the test with SN12C renal was more than 100 µM throughout. Also, the TGI in the test with SNB-19 CNS and with SW-620 colon was more than 100 µM each time.

With `Cc1cccc(C)c1NC(=O)CCCC(=O)CC(=O)/C=C/c1ccccc1`, the TGI in the test on NCI-H23 lung, with NCI-H460 lung, in the test on NCI-H522 lung, in the test with SK-OV-3 ovarian, with SN12C renal and in the test with SNB-19 CNS was more than 100 µM in each case. In the test on SW-620 colon, this compound came in with a TGI of more than 100 µM.

Turning to `CCCN=C1Nc2ccccc2[C@@H]2N(C)c3ccccc3C(C)C[C@]12C` (some centres undefined), the TGI is 29.8 µM in the test on MDA-MB-231 breast; 37.3 µM in the test with NCI-H23 lung; 55.4 µM in the test on NCI-H460 lung; 39.8 µM with NCI-H522 lung; 30.9 µM with SF-295 CNS; more than 100 µM in the test with SN12C renal. Besides, the TGI in the test with SNB-19 CNS is 44.8 µM; in the test on SW-620 colon, 36 µM.

`CC(=O)[CH-]C(=O)c1ccccc1.CC(=O)[CH-]C(=O)c1ccccc1.CC(=O)[CH-]C(=O)c1ccccc1.[Tl+3]`: the GI50 in the test with NCI-H23 lung is 45.4 µM; with NCI-H460 lung it was 22.6 µM; in the test on NCI-H522 lung, more than 54.7 µM; in the test on SF-295 CNS it was 48.7 µM; with SK-OV-3 ovarian, more than 61.8 µM; with SN12C renal it was 72.6 µM. The GI50 with SNB-19 CNS was 95.2 µM; in the test with SW-620 colon, 57.5 µM. The TGI with NCI-H23 lung, in the test with NCI-H460 lung, in the test with NCI-H522 lung, in the test with SF-295 CNS, in the test on SK-OV-3 ovarian and in the test on SN12C renal was more than 100 µM in each case. For the same compound, the TGI with SNB-19 CNS and in the test on SW-620 colon was more than 100 µM each time.

Take `N/N=C(\CC1OC(=O)c2ccccc21)c1ccco1` (centres undefined): the TGI in the test on NCI-H23 lung, in the test on NCI-H460 lung, with NCI-H522 lung, in the test with SF-295 CNS, in the test on SK-OV-3 ovarian and in the test on SNB-19 CNS was more than 100 µM each time. In the test with SW-620 colon, the TGI is more than 100 µM.

Take `CC(=O)OCC1OC(OC2CC3C(C)(C)C(OC(C)=O)CC[C@]3(C)C3CCC45CC4(CC[C@H]5C(C)CC(O)[C@@H](O)C(C)(C)O)[C@]23C)C(O)C(O)C1O` (some centres undefined): the GI50 in the test with NCI-H23 lung is 13.5 µM; with NCI-H460 lung it was 6.88 µM; with SF-295 CNS, 4.41 µM; with SK-OV-3 ovarian it was 12.4 µM; with SNB-19 CNS it was 4.35 µM; with SW-620 colon it was 3.54 µM. Further, the TGI with NCI-H23 lung was 14.9 µM and 26.3 µM; in the test with NCI-H460 lung, 16.2 µM and 19.5 µM; in the test with NCI-H522 lung, 7.17 µM and 7.74 µM; with SF-295 CNS it was 14.2 µM and 14.3 µM; with SK-OV-3 ovarian, 11.6 µM and 24.8 µM; in the test on SN12C renal, 13.2 µM and 19.1 µM. Moreover, the TGI in the test on SNB-19 CNS was 13.2 µM and 14.8 µM; with SW-620 colon, 14 µM and 13.7 µM.

Take `O=[N+]([O-])c1ccc(Sc2c3ccccc3nc3ccccc23)cc1`: the TGI with NCI-H23 lung, in the test on NCI-H460 lung, in the test on NCI-H522 lung, with SF-295 CNS, in the test with SN12C renal and with SNB-19 CNS was more than 100 µM in each case. The same compound registered a TGI with SW-620 colon of more than 100 µM.

Regarding `O=C(Nc1ccc(-n2cc(-c3ccncc3)c(-c3ccc(Cl)c(O)c3)n2)cc1)Nc1cc(C(F)(F)F)cc(C(F)(F)F)c1`, the GI50 is 2.11 µM in the test on MDA-MB-231 breast; 2.13 µM in the test with NCI-H23 lung; 1.92 µM in the test with NCI-H460 lung; 1.47 µM in the test on SF-295 CNS; 2.13 µM in the test with SK-OV-3 ovarian; 2.03 µM in the test with SN12C renal. In addition, the GI50 in the test with SNB-19 CNS is 3.01 µM; with SW-620 colon, 2.24 µM. Further, the TGI was determined as 4.93 µM in the test on MDA-MB-231 breast; 4.91 µM with NCI-H23 lung; 3.85 µM with NCI-H460 lung; 3.08 µM in the test with SF-295 CNS; 5.43 µM in the test on SK-OV-3 ovarian; 7.57 µM in the test on SN12C renal. In addition, the TGI amounted to 9.97 µM in the test with SNB-19 CNS and 4.44 µM in the test on SW-620 colon.
